# Laboratory results from patent US12497359B2, “Acrylamide derivatives” (NRG Therapeutics Ltd, priority 2020, dated 2025).
# Structures can show the parent of a compound that is named as a salt.
# How the values were obtained:
# mPTP = mPTP activity assay in isolated rat liver mitochondria (Ca2+ retention, Fluo5N, FLIPR); assay type: biochemical; settings: isolated rat liver mitochondria; average value from multiple experiments (n ≥ 2)
# From the text: Pharmacological inhibition or modulation of the mPTP can be measured in well characterised ‘Ca^2+ retention’ assays performed in isolated mitochondria. In vitro, isolated mitochondria rapidly sequester exogenous Ca^2+ until the intramitochondrial Ca^2+ concentration reaches the threshold for mPTP activation. Once the pore is activated, mitochondrial integrity is compromised and the stored Ca^2+ is released. The distribution of Ca^2+ between extra- and intra-mitochondrial compartments can be measured in real time with the use of membrane-impermeant Ca^2+ sensitive fluorescent dyes. Depending on the configuration of the assay, inhibition or modulation of the mPTP either delays the opening of the pore or increases the concentration of Ca^2+ required to induce mPTP opening.
# mPTP activity was measured in mitochondria freshly isolated from female Sprague Dawley (250 to 300 gram) rat livers using the following method. Cervical dislocation was performed on the rat. The liver was then perfused in-situ with ˜40 ml cold Dulbecco's Phosphate Buffered Saline (DPBS) prior to dissection and transferred into 30 ml Isolation Buffer (250 mM Sucrose, 10 mM KCl, 1 mM EGTA, 1 mM EDTA, 25 mM HEPES, adjusted to pH 7.5 with 1 M NaOH). Each lobe of the liver was then removed from the buffer, minced using tweezers and a scalpel into ˜5 mm pieces then transferred into a 50 ml Potterton dounce homogenization tube on ice containing 30 ml ice-cold centrifugation buffer (300 mM Trehalose, 25 mM HEPES, 1 mM EGTA, 1 mM EDTA, 10 mM KCl, adjusted to pH 7.5 with 1 M NaOH and supplemented with 0.1% bovine serum albumin (BSA) and complete protease inhibitor cocktail (one tablet of inhibitor per 50 mls of buffer). Homogenisation was carried out using a teflon pestle at 1800 rpm. The slurry was centrifuged at 800 g for 10 min at 4° C., then the supernatant centrifuged at 10,000 g for 10 min. The pellet was washed once with FLIPR assay buffer (75 mM Mannitol, 25 mM Sucrose, 5 mM Potassium Phosphate Monobasic, 20 mM Tris base, 100 mM KCl, 0.1% BSA adjusted to pH 7.4 with 5 M HCl) centrifuged again, then resuspended in FLIPR assay buffer to a concentration of 8.8 mg/ml protein.
# Test compounds (10 mM stock in DMSO) were serially diluted in DMSO in half log steps to generate 10 test concentrations (final concentrations in assay 30 μM to 1 nM). An intermediate dilution of 5 μl DMSO samples into 247 μl FLIPR assay buffer was carried out prior to transfer of 5 μl into duplicate wells of a 384 well polypropylene assay plate. Control wells were 0.5% (v/v) DMSO and 5 μM cyclosporin A.
# A stock mitochondria/Fluo5N assay solution was prepared in 5.6 ml FLIPR assay buffer (at RT) supplemented with succinate disodium salt (10 mM), rotenone (1 μM), Fluo5N pentapotassium salt (2 μM) and 1 ml mitochondria suspension, then transferred (15 μl) into the assay plate containing test compounds and incubated for 10 min at RT. Assay plates were then transferred to a FLIPR Tetra plate reader (Molecular Devices). Dye fluorescence was then measured every 3 sec for a total of 10 min. After 12 sec, a 2.5 μl bolus of CaCl2 (75 μM) was added from a source plate containing 675 μM CaCl2 in FLIPR assay buffer. IC50 values for test compounds were calculated using the fluorescence value collected at the 10 min timepoint with % inhibition calculated using the DMSO control and cyclosporin A values as […] respectively.
# [1] = Hepatocyte clearance assay, rat; assay type: in vitro ADME; settings: cryopreserved primary rat hepatocytes, average value from two experiments, read-out: Rat heps intrinsic clearance (CLint)
# Protocol: In vitro clearance studies were performed in primary rat and human hepatocytes (BioIVT). Vials of cryopreserved rat or human hepatocytes were thawed in a 37° C. water bath for 2 min. Cells were transferred into thawing medium (Williams' Medium E containing 30% Percoll, 1× GlutaMAX-1, 15 mM HEPES, 5% fetal bovine serum (FBS), 4 μg/ml insulin, 1 μM dexamethasone), centrifuged at 100 g for 10 min then resuspended in culture medium (Leibovitz's L-15 Medium) at a concentration of 0.5×10^6 viable cells/mL (number of viable cells assessed using AO/PI staining). Hepatocytes (198 μL) were transferred into wells of a 96-well non-coated plate and placed in a 37° C. incubator for 10 min. Test compound solutions were prepared from 10 mM stocks in DMSO, diluted to 100 μM in 50% (v/v in water) acetonitrile. Test compound samples (2 μl) were added to each well of hepatocytes and incubated at 37° C. Samples (25 μl) were collected at t=0, 15, 30, […] and 120 min, mixed with 6 volumes (150 μl) of acetonitrile containing internal standard (100 nM alprazolam, 200 nM caffeine and 100 nM tolbutamide), vortexed for 5 min and centrifuged for 45 min at 3220 g. An aliquot of supernatant (100 μL) was diluted with 100 μL ultra-pure water, and the mixture was used for LC/MS/MS analysis. All incubations were performed in duplicate. Peak areas were determined from extracted ion chromatograms. The slope value, k, was determined by linear regression of the natural logarithm of the remaining percentage of the parent drug vs. incubation time curve. The in vitro half-life (in vitro t1/2) was determined from the slope value: in vitro t1/2=0.693/k. Conversion of the in vitro t1/2 (in min) into the in vitro intrinsic clearance (in vitro CLint, in μL/min/1×10^6 cells) was done using the following equation (mean of duplicate determinations): • in vitro CLint=kV/N • V=incubation volume (0.2 mL) • N=number of hepatocytes per well (0.1×10^6 cells). Microsomal Clearance Assay
# PBS solubility = assay type: physicochemical; settings: aqueous buffer, kinetic from dmso stock; PBS pH 7.4, 2 hr at 25° C.
# Protocol: Test compounds were prepared as 10 mM stocks in DMSO and 15 μl samples transferred in duplicate into 1.5 mL glass flat bottom vials (BioTech Solutions). Fasted state simulated intestinal fluid (FaSSIF) or PBS (pH 7.4) was added to each vial to final volume of 500 μl. One PTFE encapsulated stir stick (V&P Scientific) was placed in each vial before sealing with PTFE/SIL plugs (BioTech Solutions). Vials were shaken at 1100 rpm for 2 hr at 25° C. Samples were then filtered through MultiScreen Solvinert filter plates (Millipore) via vacuum filtration. Aliquots of filtrate (5 μl) plus 5 μl DMSO were diluted in 490 μl 50% acetonitrile in water containing internal standard. The filtrate was analysed and quantified against a standard of known concentration using LC-MS/MS. Solubility values of the test compound and control compound were calculated as follows: [Sample]=(Area ratiosample*INJ VOL STD*DFsample*[STD])/(Area ratio STD*INJ VOLsample).
mPTP Rat liver pIC50* (mPTP),hepatocyte CLint at 1 µM [1],solubility at 2 h (PBS solubility),SMILES
6.6,–,–,"O=C(/C=C/c1ccc2cn[nH]c2c1)N[C@@H]1C[C@@H](F)c2ccccc21 (single isomer, unassigned) [Example 25]"
6.2,–,–,"O=C(/C=C/c1ccc2cn[nH]c2c1)N[C@@H]1C[C@H](F)c2ccccc21 (single isomer, unassigned) [Example 26]"
6.5,–,–,"Cc1cccc(NC(=O)/C=C/c2ccc3cn[nH]c3c2)c1 [Example 21, (E)-3-(1H-indazol-6-yl)-N-(m-tolyl)acrylamide]"
6.4,–,–,"O=C(/C=C/c1ccc2cn[nH]c2c1)Nc1cccc(Cl)c1 [Example 22, (E)-N-(3-chlorophenyl)-3-(1H-indazol-6-yl)acrylamide]"
5.9,–,–,"O=C(/C=C/c1ccc2cn[nH]c2c1)Nc1cccc(F)c1 [Example 23, (E)-N-(3-fluorophenyl)-3-(1H-indazol-6-yl)acrylamide]"
6.8,–,–,"O=C(/C=C/c1ccc2cn[nH]c2c1)Nc1ccccc1CO [Example 27, (E)-N-(2-(hydroxymethyl)phenyl)-3-(1H-indazol-6-yl)acrylamide]"
7.0,–,–,"Cc1cccc(F)c1NC(=O)/C=C/c1ccc2cn[nH]c2c1 [Example 33, (E)-N-(2-fluoro-6-methylphenyl)-3-(1H-indazol-6-yl)acrylamide]"
5.7,–,–,"O=C(/C=C/c1cc2[nH]ncc2cn1)NC1CCc2ccccc21 (stereo not shown) [Example 35, (E)-N-(2,3-dihydro-1H-inden-1-yl)-3-(1H-pyrazolo[4,3-c]pyridin-6-yl)acrylamide]"
5.0,–,–,"Cc1cccc2c1C(NC(=O)/C=C/c1ccc3cn[nH]c3c1)CC2 (stereo not shown) [Example 38, (E)-3-(1H-indazol-6-yl)-N-(7-methyl-2,3-dihydro-1H-inden-1-yl)acrylamide]"
5.8,–,–,"CC1CC(NC(=O)/C=C/c2ccc3cn[nH]c3c2)c2ccccc21 (stereo not shown) [Example 39, (E)-3-(1H-indazol-6-yl)-N-(3-methyl-2,3-dihydro-1H-inden-1-yl)acrylamide]"

# More lines, now with the values behind:
SMILES,mPTP Rat liver pIC50* (mPTP),hepatocyte CLint at 1 µM [1],solubility at 2 h (PBS solubility)
"C[C@@H]1CCCC[C@H]1NC(=O)/C=C/c1ccc2cn[nH]c2c1 (single isomer, unassigned) [Example 4a]",6.5,–,–
"C[C@@H]1CCCC[C@H]1NC(=O)/C=C/c1ccc2cn[nH]c2c1 (single isomer, unassigned) [Example 4b]",6.3,–,–
"C[C@@H]1Cc2ccccc2[C@H]1NC(=O)/C=C/c1ccc2cn[nH]c2c1 (single isomer, unassigned) [Example 14d]",6.2,–,–
"O=C(/C=C/c1cc2[nH]ncc2cc1F)NC1CCc2ccccc21 (stereo not shown) [Example 10, (E)-N-(2,3-dihydro-1H-inden-1-yl)-3-(5-fluoro-1H-indazol-6-yl)acrylamide]",7.6,60 µL/min/1e6 cells,–
"O=C(/C=C/c1cc2[nH]ncc2cc1Cl)NC1CCc2ccccc21 (stereo not shown) [Example 12, (E)-3-(5-chloro-1H-indazol-6-yl)-N-(2,3-dihydro-1H-inden-1-yl)acrylamide]",6.0,–,–
"CC1Cc2ccccc2C1NC(=O)/C=C/c1ccc2cn[nH]c2c1 (stereo not shown) [Example 14, (E)-3-(1H-indazol-6-yl)-N-(2-methyl-2,3-dihydro-1H-inden-1-yl)acrylamide]",7.3,–,–
"CC1COc2ccccc2C1NC(=O)/C=C/c1ccc2cn[nH]c2c1 (stereo not shown) [Example 15, (E)-3-(1H-indazol-6-yl)-N-(3-methylchroman-4-yl)acrylamide]",6.9,20 µL/min/1e6 cells,5.9 µM
"O=C(/C=C/c1ccc2cn[nH]c2c1)Nc1ccccc1OCc1ccccc1 [Example 16, (E)-N-(2-(benzyloxy)phenyl)-3-(1H-indazol-6-yl)acrylamide]",6.0,–,–
"O=C(/C=C/c1ccc2cn[nH]c2c1)Nc1ccccc1COc1ccccc1 [Example 17, (E)-3-(1H-indazol-6-yl)-N-(2-(phenoxymethyl)phenyl)acrylamide]",6.9,–,–
"O=C(/C=C/c1ccc2cn[nH]c2c1)Nc1ccccc1COC1CCC1 [Example 18, (E)-N-(2-(cyclobutoxymethyl)phenyl)-3-(1H-indazol-6-yl)acrylamide]",6.7,–,–
"O=C(/C=C/c1ccc2cn[nH]c2c1)Nc1cccc2cnn(Cc3ccccc3)c12 [Example 19, (E)-N-(1-benzyl-1H-indazol-7-yl)-3-(1H-indazol-6-yl)acrylamide]",7.6,179 µL/min/1e6 cells,0.08 µM
"Cn1ncc2cccc(NC(=O)/C=C/c3ccc4cn[nH]c4c3)c21 [Example 20, (E)-3-(1H-indazol-6-yl)-N-(1-methyl-1H-indazol-7-yl)acrylamide]",7.5,10 µL/min/1e6 cells,1.3 µM
"O=C(/C=C/c1ccc2cn[nH]c2c1)Nc1ccccc1COC1CN(CCF)C1 [Example 30, (E)-N-(2-(((1-(2-fluoroethyl)azetidin-3-yl)oxy)methyl)phenyl)-3-(1H-indazol-6-yl)acrylamide Hydrochloride]",5.8,–,–
"C#CCOCc1ccccc1NC(=O)/C=C/c1ccc2cn[nH]c2c1 [Example 40, (E)-3-(1H-indazol-6-yl)-N-(2-((prop-2-yn-1-yloxy)methyl)phenyl)acrylamide]",7.1,–,–
